Test results reported in ChEMBL document CHEMBL5143523, “Construction and activity evaluation of novel benzodioxane derivatives as dual-target antifungal inhibitors” (Eur J Med Chem, 2022).
pIC50: −log10 of the molar value. Values after ≈ are worked out from the molar mass of the structure shown. Active and inactive are the calls of the source. The calls are words filed in the database; no cut-off is given here.

Tests used:
[1] = system: Candida albicans; test: Antifungal activity against fluconazole resistant Candida albicans strain 904 assessed as fungal growth inhibition measured after 72 hrs in presence of naftifine by CLSI protocol based liquid medium dilution method; assay type: functional
[2] = Drug uptake in fluconazole resistant Candida albicans strain 901 in presence of naftifine by fluorescence microscopy; assay type: ADME
[3] = system: Candida albicans; test: Antifungal activity against fluconazole resistant Candida albicans strain 17# assessed as fungal growth inhibition measured after 72 hrs in presence of naftifine by CLSI protocol based liquid medium dilution method; assay type: functional
[4] = system: Candida albicans; test: Antifungal activity against fluconazole resistant Candida albicans strain 901 assessed as fungal growth inhibition measured after 72 hrs in presence of naftifine by CLSI protocol based liquid medium dilution method; assay type: functional
[5] = system: Candida albicans; test: Antifungal activity against fluconazole resistant Candida albicans strain CaR assessed as fungal growth inhibition measured after 72 hrs in presence of naftifine by CLSI protocol based liquid medium dilution method; assay type: functional
[6] = system: Candida albicans; test: Antifungal activity against fluconazole resistant Candida albicans strain 103 assessed as fungal growth inhibition measured after 72 hrs in presence of naftifine by CLSI protocol based liquid medium dilution method; assay type: functional
[7] = system: Candida albicans; test: Antifungal activity against fluconazole resistant Candida albicans strain 901 assessed as decrease in fungal cell density in presence naftifine of by fluorescence microscopy; assay type: functional, organism-based
[8] = system: Candida tropicalis; test: Antifungal activity against Candida tropicalis ATCC 1369 assessed as fungal growth inhibition measured after 72 hrs by CLSI protocol based liquid medium dilution method; assay type: functional
[9] = system: Candida albicans; test: Induction of apoptosis in Candida albicans ATCC SC5314 cells assessed as live cells at 8 ug/ml incubated for 72 hrs by Annexin V-FITC/PI staining based flow cytometry method (reference value: 95.56%); assay type: functional; settings: dose 8 µg/ml
[10] = system: Candida albicans; test: Antifungal activity against fluconazole resistant Candida albicans strain 17# assessed as fungal growth inhibition measured after 72 hrs in presence of miconazole by CLSI protocol based liquid medium dilution method
[11] = system: Candida albicans; test: Antifungal activity against fluconazole resistant Candida albicans strain CaR assessed as fungal growth inhibition measured after 72 hrs in presence of miconazole by CLSI protocol based liquid medium dilution method
[12] = target: T1, Squalene epoxidase ERG1 (Candida albicans, UniProt Q92206); test: Inhibition of SE in Candida albicans ATCC SC5314 incubated for 30 mins using squalene as substrate in presence of NADPH by spectrophotometer analysis
T1 sequence (Q92206 whole entry): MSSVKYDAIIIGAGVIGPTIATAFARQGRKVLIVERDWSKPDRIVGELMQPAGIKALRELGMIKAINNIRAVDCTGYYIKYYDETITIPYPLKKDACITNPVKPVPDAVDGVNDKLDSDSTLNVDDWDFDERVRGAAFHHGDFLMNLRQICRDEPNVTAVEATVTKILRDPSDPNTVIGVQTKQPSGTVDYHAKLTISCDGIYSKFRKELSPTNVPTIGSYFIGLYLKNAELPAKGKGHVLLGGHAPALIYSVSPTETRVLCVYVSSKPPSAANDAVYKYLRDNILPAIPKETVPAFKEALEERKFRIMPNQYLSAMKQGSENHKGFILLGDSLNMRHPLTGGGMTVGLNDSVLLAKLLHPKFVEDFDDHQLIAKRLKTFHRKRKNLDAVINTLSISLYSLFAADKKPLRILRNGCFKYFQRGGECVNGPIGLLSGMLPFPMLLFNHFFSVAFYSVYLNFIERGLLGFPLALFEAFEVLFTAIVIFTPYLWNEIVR

[13] = system: Candida albicans; test: Antifungal activity against Candida albicans ATCC SC5314 assessed as change in eburicol level at 4 ug/ml incubated for 48 hrs by LC-MS analysis (reference value: 1.4%); assay type: functional; settings: dose 4 µg/ml
[14] = system: Candida albicans; test: Induction of apoptosis in Candida albicans ATCC SC5314 cells assessed as early apoptotic cells at 8 ug/ml incubated for 72 hrs by Annexin V-FITC/PI staining based flow cytometry method (reference value: 0.56%); assay type: functional; settings: dose 8 µg/ml
[15] = system: Candida albicans; test: Antifungal activity against Candida albicans ATCC SC5314 assessed as change in lanosterol level at 4 ug/ml incubated for 48 hrs by LC-MS analysis (reference value: 3.7%); assay type: functional; settings: dose 4 µg/ml
[16] = system: Candida albicans; test: Induction of apoptosis in Candida albicans ATCC SC5314 cells assessed as necrotic cells at 8 ug/ml incubated for 72 hrs by Annexin V-FITC/PI staining based flow cytometry method (reference value: 3.76%); assay type: functional; settings: dose 8 µg/ml
[17] = system: Pichia kudriavzevii; test: Antifungal activity against Candida krusei ATCC 6258 assessed as fungal growth inhibition measured after 72 hrs by CLSI protocol based liquid medium dilution method; assay type: functional
[18] = system: Candida albicans; test: Antifungal activity against fluconazole resistant Candida albicans strain 904 assessed as fungal growth inhibition measured after 72 hrs by CLSI protocol based liquid medium dilution method; assay type: functional
[19] = system: Candida albicans; test: microbe, parasite or virus in culture; settings: Candida albicans, 904, 72 h
Description: Antifungal activity against fluconazole resistant Candida albicans strain 904 assessed as fungal growth inhibition measured after 72 hrs in presence of miconazole by CLSI protocol based liquid medium dilution method

[20] = system: Candida albicans; test: Antifungal activity against fluconazole resistant Candida albicans strain 901 assessed as fungal growth inhibition measured after 72 hrs by CLSI protocol based liquid medium dilution method; assay type: functional
[21] = system: Candida albicans; test: microbe, parasite or virus in culture; settings: Candida albicans, 103, 72 h
Description: Antifungal activity against fluconazole resistant Candida albicans strain 103 assessed as fungal growth inhibition measured after 72 hrs in presence of miconazole by CLSI protocol based liquid medium dilution method

[22] = system: Candida albicans; test: Antifungal activity against Candida albicans ATCC SC5314 assessed as decrease in ergosterol content at 4 ug/ml incubated for 48 hrs by LC-MS analysis (reference value: 90.6%); assay type: functional; set-up: scale not given: the % may be the effect or the level left; settings: dose 4 µg/ml
[23] = system: Candida albicans; test: Antifungal activity against fluconazole resistant Candida albicans strain 103 assessed as fungal growth inhibition measured after 72 hrs by CLSI protocol based liquid medium dilution method; assay type: functional
[24] = system: Candida albicans; test: Antifungal activity against Candida albicans ATCC SC5314 assessed as change in unknown sterol level at 4 ug/ml incubated for 48 hrs by LC-MS analysis (reference value: 4.3%); assay type: functional; settings: dose 4 µg/ml
[25] = system: Candida albicans; test: Antifungal activity against fluconazole resistant Candida albicans strain CaR assessed as fungal growth inhibition measured after 72 hrs by CLSI protocol based liquid medium dilution method; assay type: functional
[26] = system: Candida albicans; test: microbe, parasite or virus in culture; settings: Candida albicans, 901, 72 h
Description: Antifungal activity against fluconazole resistant Candida albicans strain 901 assessed as fungal growth inhibition measured after 72 hrs in presence of miconazole by CLSI protocol based liquid medium dilution method

[27] = system: Candida albicans; test: Antifungal activity against Candida albicans ATCC 10231 assessed as fungal growth inhibition measured after 72 hrs by CLSI protocol based liquid medium dilution method; assay type: functional
[28] = system: Candida albicans; test: Antifungal activity against fluconazole resistant Candida albicans strain 17# assessed as fungal growth inhibition measured after 72 hrs by CLSI protocol based liquid medium dilution method; assay type: functional
[29] = system: Nakaseomyces glabratus; test: Antifungal activity against Candida glabrata ATCC 0001 assessed as fungal growth inhibition measured after 72 hrs by CLSI protocol based liquid medium dilution method; assay type: functional
[30] = system: Candida albicans; test: Antifungal activity against Candida albicans ATCC SC5314 assessed as change in squalene level at 4 ug/ml incubated for 48 hrs by LC-MS analysis; assay type: functional; settings: dose 4 µg/ml
[31] = system: Aspergillus fumigatus; test: Antifungal activity against Aspergillus fumigatus KM8001 assessed as fungal growth inhibition measured after 72 hrs by CLSI protocol based liquid medium dilution method; assay type: functional
[32] = system: Candida albicans; test: Induction of apoptosis in Candida albicans ATCC SC5314 cells assessed as late apoptotic cells at 8 ug/ml incubated for 72 hrs by Annexin V-FITC/PI staining based flow cytometry method (reference value: 0.12%); assay type: functional; settings: dose 8 µg/ml

Clc1ccc(COC(Cn2ccnc2)c2ccc(Cl)cc2Cl)c(Cl)c1 (configuration not stated) [MICONAZOLE]
MIC50 [1]: 1 µg/mL
Drug uptake [2]: Active
MIC50 [3]: 1 µg/mL
MIC50 [4]: 2 µg/mL
MIC50 [5]: 1 µg/mL
MIC50 [6]: 2 µg/mL
Activity [7]: Active

CN(C/C=C/c1ccccc1)Cc1cccc2ccccc12 [NAFTIFINE]
MIC50 [8]: 0.5 µg/mL (≈ 1.74 µM)
Activity [9]: 61.6%
MIC50 [10]: 1 µg/mL
MIC50 [11]: 1 µg/mL
pIC50 [12]: 6.50
Activity [13]: 3.7%
Activity [14]: 0.56%
Activity [15]: 2.6%
Activity [16]: 35.85%
MIC50 [17]: 0.5 µg/mL (≈ 1.74 µM)
MIC50 [18]: 4 µg/mL (≈ 13.9 µM)
MIC50 [19]: 1 µg/mL (≈ 3.48 µM)
MIC50 [20]: 2 µg/mL (≈ 6.96 µM)
MIC50 [21]: 2 µg/mL (≈ 6.96 µM)
Activity [22]: 35.1%
MIC50 [23]: 4 µg/mL (≈ 13.9 µM)
Activity [24]: 5.8%
MIC50 [25]: 4 µg/mL (≈ 13.9 µM)
MIC50 [26]: 2 µg/mL (≈ 6.96 µM)
MIC50 [27]: 0.5 µg/mL (≈ 1.74 µM)
MIC50 [28]: 2 µg/mL (≈ 6.96 µM)
MIC50 [29]: 1 µg/mL (≈ 3.48 µM)
Activity [30]: 52.8%
MIC50 [31]: 4 µg/mL (≈ 13.9 µM)
Activity [32]: 1.99%
